We go through five compounds from US11471463B2, “Enhancers of cellular cannibalism for use to sensitize tumors to radiation therapy” (Institut Gustave-Roussy, priority 2017, dated 2022).

The test system of assay [1] is HCT116 cells. The assay is described as follows: Screening for enhancers of IR-mediated cellular cannibalism (imaging flow cytometry, confocal microscopy validation). It is filed as cell-based, human. Conditions: 8 Gray, 10 μM compound, 24 hours of culture. How it is done:
FIG. 4 Identification of cannibalism modulators triggered by ionizing radiation. Compounds from the Prestwick (A) and CEA (F) libraries were tested for their capacities to induce cellular cannibalism after ionizing radiation. Cannibal cells were detected after homotypic cultures of 8 gray γ-irradiation HCT116 cells in the presence or absence of […] of the Prestwick (A) and CEA […] library compounds. Each dot represents one compound. Representative images are shown in (B, G). (C, H) HCT116 cells were treated with the indicated drugs. After 24 h of treatment, cell death was monitored by staining with 3,3 dihexyloxacarbocyanine iodide (DiOC6(3)) and PI, and the percentage of dying (DiOC6(3)^low PI^−, open bars) and dead (DiOC6(3)^low PI^+, closed bars) cells was determined by cytofluorometry. Validation of the cannibalism inducers by fluorescent microscopy. Representative images (D, I) and quantification (E, J) are shown. Results are means±s.e.m. of triplicate determinations.
Then, the screening of a library of chemical compounds was developed in order to identify compounds able to induce IR-mediated cellular cannibalism. Thus, HCT116 cells that have been treated with a radiation dose of 8 Gray were stained either with orange CMTMR cell tracker or green CMFDA cell tracker and cultivated in presence of 10 μM of chemical compounds. After 24 hours of culture, cells have been stained with nuclear dye (5 μg/ml of Hoechst 33342 during 1 h at 37° C.) and analyzed using the FlowSight® Imaging Flow Cytometer for cellular cannibalism. Each of these compounds were classified according to their Z-score^47 and identified respectively 13 and 11 candidate compounds (FIGS. 4A, 4B, 4F and 4G). Then, the identified compounds were validated by combining flow cytometry approaches (in order to eliminate cytotoxic compounds by simultaneously monitoring the depolarization of the internal mitochondrial membrane and the plasma membrane permeability of the treated cells) with confocal microscopy approaches (to confirm the modulation of IR-induced cellular cannibalism by candidate compounds) (FIGS. 4C-E and 4H-J). […] Finally, 16 chemical compounds that are able to enhance the capacity of IR to trigger cellular cannibalism were identified (FIGS. 4E and 4J, Tables 1&2).

For assay [2], the system named is MCA205 cells. Put plainly: Cell death monitoring by DiOC6(3)/PI staining. It is filed as cell-based, mouse. How it is done:
(§1) FIG. 5. Identification of cannibalism modulators as immunogenic cell death inducers. MCA205 (A) or CT26 (E, I, M, Q) cells were treated with the indicated drugs. After 24 h of coculture with the indicated treatment, cell death was monitored by staining DiOC6(3) and PI, and the percentage of dying (DiOC6(3)^low PI^−, open bars) and dead (DiOC6(3)^low PI^+, closed bars) cells was determined by cytofluorometry. (B-D) MCA205 cells or (F-H, J-L, N-P, R-T) CT26 cells cocultured after x irradiation with the indicated compounds were inoculated subcutaneously into the right flank of […] or BALB/c mice, respectively. Seven days later, the mice were rechallenged with live cells injected into the opposite flank, and tumor growth was monitored (five mice per group).
(§2) Considering that immunogenic cell death (ICD) inducers were identified (such as Digoxin, Digitoxin, Lanatoside C or Doxorubicin hydrochloride)^3, 4, 48-51) as IRCCE, the ability of these compounds to induce an antitumor immunity after radiotherapy was evaluated. […] Tumors were evaluated weekly using a common caliper. […] One week later, 5×10^5 untreated control cells were inoculated into the contralateral flank of mice and tumors were evaluated weekly using a common caliper. […] The percentage of dying cells in each condition was evaluated by determining with DiOC(6)3/IP staining (FIGS. 5E, 5I, 5M and 5Q). […]

In assay [3] the test system is MCA205 cells. The assay is described as follows: Anti-tumor vaccination assay, treated MCA205 cells inoculated into C57BL/6 mice and rechallenge. It is filed as in vivo, mouse. The procedure:
as §1, §2

The subject of another assay is CT26 cells. Put plainly: Anti-tumor vaccination assay, treated CT26 cells inoculated into BALB/c mice and rechallenge. It is filed as in vivo, mouse. Conditions: 8 Gy in presence of 10 μM compound for 24 hours. How it is done:
as §1
FIG. 6. Tumor vaccination experiments. CT26 cells were treated for 24 hours with 10 μM VP331 (A, F, K), 10 μM Minaprine (B, G, L), 10 μM Lopa87 (C, H, M), 10 μM SG6163F (D, I, N), 10 μM Azaguanine-8 (8-aza) (E, J, O) alone or combined with 8 Gy ionizing radiation and inoculated (s.c.) into immunocompetent BALB/c mice, which were rechallenged at the opposite flank 7 days later with the same cancer cells. The percentage of tumor-free mice was evaluated three times a week for the following 38 days. Percentage of total tumor free mice (A-E), tumor free-mice at the first injection site (F to J, P) or at the second injection site (K to O, Q) are shown. (*P<0.05, **P<0.01, ***P<0.001, two-way ANOVA).
Considering that immunogenic cell death (ICD) inducers were identified (such as Digoxin, Digitoxin, Lanatoside C or Doxorubicin hydrochloride)^3, 4, 48-51) as IRCCE, the ability of these compounds to induce an antitumor immunity after radiotherapy was evaluated. First, a preclinical approaches was developed to study the immunological effects of IRCCE on two mouse models of carcinoma (colon CT26 carcinoma and fibrosarcoma MCA205). Initially, the ability of the combination of IRCCE+IR to trigger a specific anti-tumor immune response was appreciated using immunocompetent mice through anti-tumor vaccination assays. According to previously published studies^52, the injection of cancer cells succumbing to an immunogenic cell death (ICD) into immunocompetent mice must elicit a protective immune response that is specific for tumor antigens. Thus, 3×10^5 MCA205 cells were first treated with 10 μM of SG6163F for 24 hours. Then, treated cells were inoculated subcutaneously in 200 μl PBS into the lower flank of 8-week-old female C57BL/6 mice. One week later, 3×10^4 untreated control cells were inoculated into the contralateral flank of mice. Tumors were evaluated weekly using a common caliper. Animals bearing tumors that exceeded 20-25% body mass were euthanatized. […] Then, 3×10^6 CT26 cells were irradiated with 8 Gy in presence of 10 μM of SG6163F (FIGS. 5E and 5F), VP331 (FIGS. 5I and 5J), Minaprine dihydrochloride (FIGS. 5M and 5N) or LOPA87 (FIGS. 5Q and 5R) for 24 hours. Then, cells were inoculated as previously described subcutaneously in 200 μl PBS into the lower flank of 8-week-old female BALB/c mice. One week later, 5×10^5 untreated control cells were inoculated into the contralateral flank of mice and tumors were evaluated weekly using a common caliper. As previously mentioned, animals bearing tumors that exceeded 20-25% body mass were euthanatized. The percentage of dying cells in each condition was evaluated by determining with DiOC(6)3/IP staining (FIGS. 5E, 5I, 5M and 5Q). Finally, the ability of these compounds to repress the growth of cancer cells that have been injected 7 days after injection of irradiated and treated cancer cells was appreciated.
A second anti-tumor vaccination assay was done on CT26 mouse models of carcinoma as previously described. […]

Assay [4] relates to HCT116 cells. The assay is described as follows: Cell death profiling by quantitative flow imaging of co-cultured irradiated and non-irradiated cells. Format: cell-based, human. Conditions: 4 grays, 24 hour co-culture; for Engulfment of neighboring cells by gamma-irradiated CMFDA+ cells (cell-in-cell internalization): Y27632 30 μM; for Engulfment of neighboring cells by gamma-irradiated CMFDA+ cells (cell-in-cell internalization) / Exposure of PS on the outer plasma membrane of irradiated CMFDA+ cells: Z-VAD-fmk 100 μM; for Exposure of PS on the outer plasma membrane of irradiated CMFDA+ cells: Roscovitine 10 μM. How it is done:
Untreated HCT116 cells were labeled with CMFDA (green fluorescence, CMFDA^+) or CMTMR, (red fluorescence, CMTMR^+) and treated HCT116 cells with CMFDA (green fluorescence, CMFDA^+). The following cell mixtures were performed: untreated CMTMR^+ HCT116 cells were mixed with untreated CMFDA^+ HCT116 cells, or untreated CMTMR^+ HCT116 cells were mixed with treated CMFDA^+ HCT116 cells. Then, cells were co-cultured during 24 hours in the presence or absence of the pharmacological inhibitor of ROCK, Y27632 (30 μM), the pan-caspase inhibitor, Z-VAD-fmk (ZVAD, 100 μM), the inhibitor of caspase-1, Ac-YVAD-cmk (YVAD, 100 μM), the necroptosis inhibitor, Necrostatin-1 (NEC 1, 30 μM), the inhibitor of the vacuolar type H(+)-ATPase (V-ATPase) inhibiting autophagy, Bafilomycin A1 (BafA1, 50 nM), the inhibitor of Cdks with an anti-mitotic activity, Roscovitine (Rosco, 10 μM). After 24 hours of co-culture, both detached and adherent cells were collected and stained with Hoechst 33345 ([…]) during 1 hour at 37° C. in warmed complete medium. To detect phosphatidylserine (PS) exposure and plasma membrane permeability, labeled HCT116 cells were successively incubated with Biotin-AnnexinV (BD Pharmingen) as recommended by manufacturer, […] BV786-Streptavidin (BD Biosciences) and […] DRAQ7 (BioStatus) during 15 minutes at 25° C. After washing with PBS solution, samples were immediately analyzed using an imaging flow cytometer FlowSight® (Amnis®, part of EMD Millipore). Data were acquired at a 20× magnification, using INSPIRE software. The 405 nm, 488 nm, and 561 nm lasers were used for excitation. Brightfield, Annexin V-BV786, DRAQ7, CMFDA, CMTMR and Hoechst 33345 stainings were detected using respectively channels for 420-480 nm, 745-800 nm, 642-745 nm, 480-560 nm, 595-642 nm and 430-505 nm. At least 1000 events of cells per sample were analyzed. Additional single-labeled controls were prepared to normalize fluorescent signal across different channels. Acquired data were analyzed using the IDEAS analysis software (v6.1; Merck-Millipore). Gating strategy was the following. Cells were gated for focused cells using the Gradient RMS feature. Cells were gated for single cells using the aspect ratio and area features. For the cannibalism detection, cells were gated in the double positive CMFDA^+ and CMTMR^+ staining.
To detect PS exposure, plasma membrane permeability and cell cycle progression, cells were after co-culture sequentially labeled with specific fluorescent probes (such as FITC-conjugated AnnexinV, propidium iodide, and Hoechst 33342) and analyzed by flow cytometry. Both detached and adherent cells were collected and stained with Hoechst 33345 (10 ug/ml) during 1 hour at 37° C. in warmed complete medium. After washing with PBS, HCT116 cells were suspended in 1X binding buffer supplemented with fluorescein isothiocyanate (FITC)-conjugated Annexin V (BD Biosciences) and propidium iodide (PI, 1 μg/mL) (Sigma), as per manufacturer's instructions. Samples were then analyzed using LSRII flow cytometer (Becton Dickinson) and the FlowJo software v10. For confocal fluorescence microscopy, HCT116 cells were fixed after co-culture in 3,7% paraformaldehyde-PBS for 15 minutes and counterstained with 1 μg/mL Hoechst 33342 (Invitrogen) for 15 minutes. Then, cells were analyzed by confocal SPE microscope equipped with Apochromat 63×1.3 NA and 63×1.15 NA oil immersion objectives. The Leica Application Suite (LAS) software was used (Leica Microsystems).
Considering the diversity of lethal stimuli that can potentially initiate both non-cell autonomous and cell autonomous cell death modalities and the complexity of signaling pathways (involving (or not) caspases, cathepsins or granzymes) that control both processes, it was decided to simultaneously detect non-cell autonomous and cell autonomous death modalities elicited by IR. […]

Peptide text beside a SMILES is read from it. * marks the point of attachment. Cbz = O=C(OCc1ccccc1)*; CH2F = FC*

In the case of `O=C1NC(c2ccccc2)=N/C1=C\c1cc2ccccc2c2ccccc12` [SG6163F], the “Enhancement of IR-mediated cellular cannibalism (IRCCE)” value in the assay on HCT116 cells [1] was “efficient cellular cannibalism enhancer”. In addition, the “Increase of cell death in vitro” value in the assay on MCA205 cells [2] (10 μM compound alone, 24 hours) was “not able to induce a significant increase of cell death”. The “Increase of death of treated and irradiated cells” value with MCA205 cells [2] (8 Gy of IR and 10 μM compound) is “absence of a significant increase of death”. Besides, in the assay with MCA205 cells [3] (MCA205 cells treated with 10 μM compound alone, rechallenge one week later), the “Protective response after inoculation of untreated cells” value is “did not exhibit a protective response”. Besides, the “Mice with protective response” value with MCA205 cells [3] (MCA205 cells treated with 8 Gy of IR and 10 μM compound) is given as 3 of 5. Moreover, the “Frequency of mice showing a protective response” value in the assay with CT26 cells (first assay: CT26 cells, rechallenge one week later) was “significant increase in the frequency of mice showing a protective response”; in the assay on CT26 cells (second assay: CT26 cells, rechallenge 7 days later), “Significant increases in the frequency of mice showing a protective response”.

On to `C[C@@H](N)[C@H]1CC[C@H](C(=O)Nc2ccncc2)CC1` [Y27632], for which the “Engulfment of neighboring cells by gamma-irradiated CMFDA+ cells (cell-in-cell internalization)” value in the assay with HCT116 cells [4] is on record as “repressed”.

With `COC(=O)CC(NC(=O)C(C)NC(=O)C(NC(=O)OCc1ccccc1)C(C)C)C(=O)CF` (stereo not drawn) [Z-VAD-fmk, Benzyloxycarbonyl-Val-Ala-Asp(OMe)-fluoromethylketone] (Cbz-Val-Ala-Asp(OMe)-CH2F; configuration not given here), in the assay on HCT116 cells [4], the “Engulfment of neighboring cells by gamma-irradiated CMFDA+ cells (cell-in-cell internalization)” value was “not affected” and the “Exposure of PS on the outer plasma membrane of irradiated CMFDA+ cells” value is reported as “inhibited the exposure of PS”. Moreover, in the assay with HCT116 cells [4] (inhibitors 100 μM), the “Cellular degradation of engulfed CMTMR+ cells” value is on record as “significantly reduced”.

Take `CO/C1=C\C(C)=C\[C@@H](C)[C@@H](O)[C@@H](C)C/C(C)=C/C=C/[C@H](OC)[C@@H]([C@@H](C)[C@@H](O)[C@H](C)[C@@]2(O)C[C@@H](O)[C@H](C)[C@@H](C(C)C)O2)OC1=O` [bafilomycin A1, Bafilomycin A1]: the “Frequency of dying cells (AnnexinV+DRAQ7- and DRAQ7+ cells)” value in the assay on HCT116 cells [4] (total, non-irradiated CMTMR+ and irradiated CMFDA+ cells, BafA1 50 nM) was “increased the frequency of dying cells”.

As to `CC[C@H](CO)Nc1nc(NCc2ccccc2)c2ncn(C(C)C)c2n1` [roscovitine, Roscovitine], the “Exposure of PS on the outer plasma membrane of irradiated CMFDA+ cells” value in the assay with HCT116 cells [4] is listed as “inhibited the exposure of PS”.
